Here are results for 41 compounds from US20090176841A1, “NOVEL 6-5 SYSTEM BICYCLIC HE[…] ITS PHAR[…]” (Sanwa Kagaku Kenkyusho Co., Ltd., priority 2006, published 2009).

In one assay the target is T1, recombinant human TRβ (Homo sapiens, UniProt P10828).
T1 sequence (P10828 244-461): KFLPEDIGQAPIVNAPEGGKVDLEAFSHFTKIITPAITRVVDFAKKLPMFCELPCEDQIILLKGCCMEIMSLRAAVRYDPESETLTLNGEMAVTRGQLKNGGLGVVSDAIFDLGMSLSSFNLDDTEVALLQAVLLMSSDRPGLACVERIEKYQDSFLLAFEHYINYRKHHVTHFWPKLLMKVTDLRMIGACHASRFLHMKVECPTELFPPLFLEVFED
In words: biochemical. The conditions noted are these: TR[…] (IC50, nM), displacement of 125I-T3 (0.16 nM). The text has this:
(§1) Thyroid Hormone Receptor Binding Test
(§2) (1) Preparation of Fused Protein Having Ligand Binding Region of Thyroid Hormone Receptor
(§3) Human TRα and human TRβ ligand binding domains were expressed in Escherichia coli as a fused protein (recombinant human TRα or recombinant human TRβ) having TRα and TRβ ligand binding domains at a C-terminus of His-Patch Thioredoxin using the His-Patch Thioredoxin fusing protein expressing system (Invitrogen).
(§4) A nucleotide sequence of a region corresponding to the fused protein was confirmed by DNA sequence analysis.
(§5) Escherichia coli by which the fused protein had been subjected to expression inducement were collected by a centrifugation method, and ground using ultrasound to prepare a ground cell liquid containing the fused protein. The ground cell liquid was centrifuged at 15000 rpm for about 30 minutes, and a solution containing the fused protein from the supernatant using a nickel chelating column was obtained. An NAP-10 column was replaced with a binding solution (20 mM, Tris-HCl, 0.15 M NaCl, 8% Glycerol, 0.1% BSA, 1 mM EDTA, 10 mM 2-melcaptethanol). The resulting binding solution containing the fused protein was frozen and stored at −70° C. or lower.
(§6) (2) Binding Affinity for Thyroid Hormone Receptor
(§7) This binding solution (60 μL) was added to all wells of a 96-well plate (MILLIPORE MultiScreen-HV, Cat. No. MANVN4550, Lot. No. F4SN86613). […] 80 μL of SephadexG25 was added to each well of MultiScreen-HV (MILLIPORE, Cat. No. MANVN4550, Lot. No. F4SN86613), the binding solution was added to sufficiently swell, and this was centrifuged at 600×g for 1 minute to prepare a column of SephadexG25. […] Again, 25 μL untreated binding solution was overlaid on the SephadexG25 column, and this was immediately centrifuged at 600×g for 1 minute. […] As an amount of recombinant human TRα or recombinant human TRβ used in the present test, an amount by which proper radioactivity is obtained in a range where an addition amount of the receptor and an amount of the complex in the above test system, was used.
(§8) This was divided by the total complex amount to calculate a binding rate as the following equation:
(§9) Binding rate=remaining complex amount/total complex amount
(Loss of bound radioactivity is the signal in a displacement assay; it reports binding, not function.)

A further assay deals with T2, recombinant human TRα (Homo sapiens, UniProt P10827).
T2 sequence (P10827 190-410 isoform P10827-2): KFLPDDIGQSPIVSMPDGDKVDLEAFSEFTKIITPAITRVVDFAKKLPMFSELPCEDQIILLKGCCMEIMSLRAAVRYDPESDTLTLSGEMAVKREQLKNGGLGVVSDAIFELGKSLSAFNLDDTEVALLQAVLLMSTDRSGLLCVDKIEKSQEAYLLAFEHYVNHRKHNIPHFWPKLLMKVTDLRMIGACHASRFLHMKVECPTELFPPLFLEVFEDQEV
In words: biochemical. The conditions noted are these: TR[…] (IC50, nM), displacement of 125I-T3 (0.16 nM).
Text: as §1, §2, §3, §4, §5, §6, §7, §8, §9

`Cc1ccc(NC(=O)CC(=O)O)c2cc(C)n(Cc3ccc(O)c(C(O)c4ccc(F)cc4)c3)c12` (single isomer, unassigned; (+)) [Example 130, (+)-N-(1-{3-[(4-fluorophenyl)hydroxymethyl]-4-hydroxybenzyl}-2,7-dimethyl-1H-indol-4-yl)malonamic acid]: the figures for the IC50 on recombinant human TRβ and on recombinant human TRα were 150 nM and 5200 nM, respectively.
On to `Cc1ccc(NC(=O)CC(=O)O)c2cc(C)n(Cc3ccc(O)c(C(O)c4ccc(F)cc4)c3)c12` (single isomer, unassigned; (-)) [Example 131, (−)-N-(1-{3-[(4-fluorophenyl)hydroxymethyl]-4-hydroxybenzyl}-2,7-dimethyl-1H-indol-4-yl)malonamic acid], for which the IC50 (as a rule, the midpoint of a concentration-inhibition curve) at recombinant human TRβ was 7.1 nM; on recombinant human TRα, 99 nM.
In the same order, the values of `CCOC(=O)C(=O)Nc1cccc2c1ccn2Cc1ccc(O)c(C(C)C)c1` [Example 1, Ethyl N-[1-(4-hydroxy-3-isopropylbenzyl)-1H-indol-4-yl]oxamate] are 220 nM and 1500 nM.
Take `CCOC(=O)C(=O)Nc1cccc2c1cc(C)n2Cc1ccc(O)c(C(C)C)c1` [Example 8]: the half-inhibitory concentration (IC50) was determined as 72 nM at recombinant human TRβ and 370 nM on recombinant human TRα.
Regarding `CCOC(=O)C(=O)Nc1ccc(C)c2c1ccn2Cc1ccc(O)c(C(C)C)c1` [Example 15], the IC50 at recombinant human TRβ was determined as 60 nM; on recombinant human TRα, 490 nM.
The matching figures for `CCOC(=O)C(=O)Nc1cccc2c1c(C)c(C)n2Cc1ccc(O)c(C(C)C)c1` [Example 19]: 56 nM and 280 nM.
Take `CCOC(=O)C(=O)Nc1ccc(C)c2c1cc(C)n2Cc1ccc(O)c(C(C)C)c1` [Example 21]: the IC50 at recombinant human TRβ came to 6.3 nM; at recombinant human TRα, 37 nM.
Consider `CCOC(=O)CC(=O)Nc1ccc(C)c2c1cc(C(F)(F)F)n2Cc1ccc(O)c(C(C)C)c1` [Example 26], for which the IC50 worked out at 310 nM on recombinant human TRβ and 3400 nM at recombinant human TRα.
As for `CCc1cc2c(NC(=O)Cc3nnn[nH]3)cccc2n1Cc1ccc(O)c(C(C)C)c1` [Example 41], the IC50 at recombinant human TRβ was 650 nM; on recombinant human TRα it was greater than 10000 nM.
In the same order, the values of `Cc1ccc(NC(=O)Cc2nnn[nH]2)c2ccn(Cc3ccc(O)c(C(C)C)c3)c12` [Example 42] are 150 nM and 8200 nM.
In the case of `Cc1ccc(NC(=O)Cc2nnn[nH]2)c2cc(C)n(Cc3ccc(O)c(C(C)C)c3)c12` [Example 43], the values for the IC50 on recombinant human TRβ and at recombinant human TRα were 8.5 nM and 450 nM, respectively.
In the same order, the values of `CCOC(=O)C(=O)Nc1ccc(C)c2c1ccn2Cc1ccc(O)c(C(O)c2ccc(F)cc2)c1` (stereo not shown) [Example 56, Ethyl N-(1-{3-[(4-fluorophenyl)hydroxymethyl]-4-hydroxybenzyl}-7-methyl-1H-indol-4-yl)oxamate] are 84 nM and 480 nM.
For `CCOC(=O)CC(=O)Nc1ccc(C)c2c1cc(C)n2Cc1ccc(O)c(C(O)c2ccc(F)cc2)c1` (stereo not shown) [Example 57, Ethyl N-(1-{3-[(4-fluorophenyl)hydroxymethyl]-4-hydroxybenzyl}-2,7-dimethyl-1H-indol-4-yl)malonamate], the IC50 at recombinant human TRβ was found to be 24 nM; at recombinant human TRα, 3800 nM.
Turning to `CC(C)c1cc(Cn2ccc3c(NC(=O)C(=O)O)cccc32)ccc1O` [Example 63, N-[1-(4-hydroxy-3-isopropylbenzyl)-1H-indol-4-yl]oxamic acid], the 50% inhibitory concentration (IC50) amounted to 170 nM on recombinant human TRβ and 1200 nM at recombinant human TRα.
As for `Cc1ccc(NC(=O)CC(=O)O)c2cc(C)n(Cc3ccc(O)c(Br)c3)c12` [Example 65], the half-inhibitory concentration (IC50) at recombinant human TRβ is 470 nM; at recombinant human TRα, greater than 10000 nM.
As to `CC(C)c1cc(Cn2ccc3c(NC(=O)CC(=O)O)cccc32)ccc1O` [Example 69], the IC50 is 430 nM on recombinant human TRβ and greater than 10000 nM on recombinant human TRα.
The matching figures for `Cc1cc2c(NC(=O)C(=O)O)cccc2n1Cc1ccc(O)c(C(C)C)c1` [Example 72]: 40 nM and 230 nM.
Turning to `Cc1cc2c(NC(=O)CC(=O)O)cccc2n1Cc1ccc(O)c(C(C)C)c1` [Example 73], the IC50 on recombinant human TRβ was 210 nM; on recombinant human TRα, 5100 nM.
In the same order, the values of `Cc1cc2c(OCC(=O)O)cccc2n1Cc1ccc(O)c(C(C)C)c1` [Example 74] are 200 nM and 2700 nM.
`CCc1cc2c(NC(=O)CC(=O)O)cccc2n1Cc1ccc(O)c(C(C)C)c1` [Example 75]: the figures for the IC50 at recombinant human TRβ and on recombinant human TRα were 550 nM and greater than 10000 nM, respectively.
`CC(C)c1cc(Cn2c(C(F)(F)F)cc3c(NC(=O)CC(=O)O)cccc32)ccc1O` [Example 76]: the results for the IC50 at recombinant human TRβ and on recombinant human TRα were 67 nM and 610 nM, respectively.
`CC(C)c1cc(Cn2ccc3c(NC(=O)CC(=O)O)cc(Br)cc32)ccc1O` [Example 77]: the values for the half-maximal inhibitory concentration (IC50) at recombinant human TRβ and at recombinant human TRα were 570 nM and greater than 10000 nM, respectively.
The matching figures for `CC(C)c1cc(Cn2ccc3c(NC(=O)CC(=O)O)ccc(Cl)c32)ccc1O` [Example 78]: 36 nM and 230 nM.
The matching figures for `Cc1ccc(NC(=O)C(=O)O)c2ccn(Cc3ccc(O)c(C(C)C)c3)c12` [Example 79]: 130 nM and 5200 nM.
Take `Cc1ccc(NCCC(=O)O)c2ccn(Cc3ccc(O)c(C(C)C)c3)c12` [Example 82]: the half-maximal inhibitory concentration (IC50) at recombinant human TRβ is 1100 nM; on recombinant human TRα, 1600 nM.
For `Cc1c(C)n(Cc2ccc(O)c(C(C)C)c2)c2cccc(NC(=O)C(=O)O)c12` [Example 83], the concentration for half-maximal inhibition (IC50) worked out at 27 nM at recombinant human TRβ and 85 nM on recombinant human TRα.
In the same order, the values of `Cc1ccc(NC(=O)C(=O)O)c2cc(C)n(Cc3ccc(O)c(C(C)C)c3)c12` [Example 85] are 3.1 nM and 24 nM.
In the case of `Cc1ccc(NC(=O)CC(=O)O)c2cc(C)n(Cc3ccc(O)c(C(C)C)c3)c12` [Example 86], the half-inhibitory concentration (IC50) at recombinant human TRβ was 16 nM; at recombinant human TRα, 670 nM.
The matching figures for `Cc1ccc(NC(=O)C(F)C(=O)O)c2cc(C)n(Cc3ccc(O)c(C(C)C)c3)c12` (stereo not shown) [Example 88]: 13 nM and 120 nM.
Consider `Cc1ccc(NC(=O)C(C)C(=O)O)c2cc(C)n(Cc3ccc(O)c(C(C)C)c3)c12` (stereo not shown) [Example 89], for which the IC50 at recombinant human TRβ was determined as 120 nM; at recombinant human TRα, 870 nM.
`Cc1ccc(NC(=O)CCC(=O)O)c2cc(C)n(Cc3ccc(O)c(C(C)C)c3)c12` [Example 93]: the IC50 at recombinant human TRβ was 260 nM; on recombinant human TRα, 650 nM.
For `Cc1ccc(NC(=O)CC(=O)O)c2cc(C(F)(F)F)n(Cc3ccc(O)c(C(C)C)c3)c12` [Example 95], the IC50 on recombinant human TRβ stood at 5 nM; on recombinant human TRα it was 98 nM.
`Cc1ccc(NC(=O)CC(=O)O)c2cc(C)n(Cc3ccc(O)c(Cc4ccc(F)cc4)c3)c12` [Example 100]: the half-maximal inhibitory concentration (IC50) at recombinant human TRβ stood at 28 nM; on recombinant human TRα it was 600 nM.
Regarding `Cc1ccc(NC(=O)C(=O)O)c2cc(C)n(Cc3ccc(O)c(CCc4ccccc4)c3)c12` [Example 101], the IC50 at recombinant human TRβ came out at 390 nM; at recombinant human TRα, 2200 nM.
Regarding `Cc1cc(Cn2ccc3c(NC(=O)C(=O)O)ccc(C)c32)cc(C)c1O` [Example 103], the IC50 was 860 nM on recombinant human TRβ and 3200 nM at recombinant human TRα.
Consider `CC(C)c1cc(Cn2ccc3cc(NC(=O)C(=O)O)ccc32)ccc1O` [Example 105], for which the IC50 at recombinant human TRβ came out at 260 nM; at recombinant human TRα it was 970 nM.
In the case of `Cc1cc(NC(=O)C(=O)O)cc2ccn(Cc3ccc(O)c(C(C)C)c3)c12` [Example 108], the 50% inhibitory concentration (IC50) worked out at 54 nM on recombinant human TRβ and 190 nM on recombinant human TRα.
The matching figures for `Cc1cc(NC(=O)CC(=O)O)cc2ccn(Cc3ccc(O)c(C(C)C)c3)c12` [Example 109]: 600 nM and greater than 10000 nM.
For the compound `CC(C)c1cc(Cn2ncc3c(NC(=O)C(=O)O)cccc32)ccc1O` [Example 111], the IC50 is 1400 nM on recombinant human TRβ and greater than 10000 nM on recombinant human TRα.
For the compound `CC(C)c1cc(Cc2c[nH]c3c(NC(=O)CC(=O)O)cccc23)ccc1O` [Example 113], the values for the IC50 at recombinant human TRβ and at recombinant human TRα were 320 nM and greater than 10000 nM, respectively.
In the same order, the values of `Cc1ccc(NC(=O)C(=O)O)c2cc(C)n(Cc3ccc(O)c(C(F)(F)F)c3)c12` [Example 114] are 49 nM and 180 nM.
